Assay results reported in PMC5716539, “The acute glucose lowering effect of specific GPR120 activation in mice is mainly driven by glucagon-like peptide 1” (PLoS ONE, 2017).

Columns and labels:
mouse GPR40 = target: T1, mouse GPR40 (Mus musculus, UniProt Q76JU9); experiment: Calcium mobilization assay in HEK293-mGPR40 cells; type: cell-based
T1 construct: expressed in transfected cells
Protocol: (§1) CHO-hGPR120 and CHO cells were cultured in DMEM/F-12 (Invitrogen) with 10% FBS (Sigma) and HEK293-mGPR40 in DMEM (Invitrogen) supplemented with 10% FBS in 384-well poly-D-Lysin coated microplates (Greiner) at 37°C, 95% humidity and 5% CO2. After 19 hours cell media was replaced with Calcium4 dye (Molecular Devices) in HBSS (Invitrogen), 20 mM HEPES (Invitrogen), pH 7.4 and 1.25 mM Probenecid (Sigma). After 1 hour at room temperature agonists were added and calcium mobilization was detected as change in fluorescence (λex = 488 and λem = 540 nm) using a FLIPR^TETRA (Molecular Devices).

control CHO cells [1] = experiment: Calcium mobilization assay in control CHO cells; type: cell-based, Chinese hamster
Protocol: as §1

GPR120 null mice [2] = experiment: IVGTT in female GPR120 null mice; type: in vivo, mouse
Protocol: Lean female mice (body weight 20–25 g), were randomized on body weight and fasted 4 hours prior to the IVGTT. Metabolex-36 (100 mg/kg) was administered orally 60 min and AZ13581837 (35mg/kg) 30 min before the IVGTT ([…]). Control mice were given vehicle (0.5% HPMC, 0.1% Tween-80) at corresponding time points. The specificity of AZ13581837 was examined in IVGTT in GPR120 null mice. GPR120 agonist doses were selected to reach plasma levels of at least 10 times over the in vitro EC50 value to achieve maximal activation of GPR120 (S2 Appendix). Thirty minutes prior to the glucose load, the mice were anaesthetised (20 mg/kg fluanisone/0.8 mg/kg fentanyl (Hypnorm®, Janssen, Beerse, Belgium) and 10 mg/kg midazolam (Dormicum®, Hoffman-LaRoche, Basel, Switzerland)) to allow for rapid blood sampling. The mice were kept at a heating pad to maintain body temperature.
In the IVGTT, the acute insulin response (AIR) was calculated as the mean of suprabasal 1 and 5 min values, and the glucose elimination was quantified using the glucose elimination constant (KG) calculated as the slope of the logarithmic transformation of circulating glucose between 1 and 20 min after the glucose bolus. Multiple comparisons between the different groups were performed by one-way ANOVA. Tukey’s or Bonferroni’s post hoc test were used to calculate statistical differences between the groups. […]

[3] = Pharmacokinetic properties; type: in vivo, mice; conditions: insufficient for chronic treatment
control CHO cells [4] = experiment: cAMP assay in control CHO cells; type: cell-based, Chinese hamster
Protocol: CHO-hGPR120 or CHO cells in HBSS (Invitrogen), 20 mM HEPES (Invitrogen), pH 7.4, 0.01% BSA, 1.5 mM 3-isobutyl-1-methylxanthine (Sigma) and d2-labeled cAMP (CisBio) were incubated with GPR120 agonists (1% DMSO) for 45 min at room temperature in white small-volume 384-well plates (Greiner). The reaction was terminated by addition of conjugate and lysis buffer (CisBio) supplemented with anti-cAMP Cryptate (CisBio).

GPR120 null mice [5] = experiment: OGTT in male GPR120 null mice; type: in vivo, mouse
Protocol: OGTT tests were performed in lean male mice (body weight 27-32g), randomized on body weight, fasted for 16 hours. An oral glucose load (2 g/kg) was administered 30 min (AZ13581837, 7 and 18 mg/kg) or 60 min (Metabolex-36, 10, 30 and 100 mg/kg) after oral dosing with the GPR120 agonists and blood glucose was measured at -30, 0, 10, 25, 40, 60 and 90 min post glucose administration. The specificity of Metabolex-36 was examined in male GPR120 null mice. The administration time for the GPR120 agonists was optimized depending on the pharmacokinetic profile of each compound, in order to maximize the plasma exposure of the compounds during the experiments.

mouse islets = tested on: mouse islets; set-up: method as in PMID 24663807; conditions: cited from earlier work

T1 sequence (Q76JU9 whole entry): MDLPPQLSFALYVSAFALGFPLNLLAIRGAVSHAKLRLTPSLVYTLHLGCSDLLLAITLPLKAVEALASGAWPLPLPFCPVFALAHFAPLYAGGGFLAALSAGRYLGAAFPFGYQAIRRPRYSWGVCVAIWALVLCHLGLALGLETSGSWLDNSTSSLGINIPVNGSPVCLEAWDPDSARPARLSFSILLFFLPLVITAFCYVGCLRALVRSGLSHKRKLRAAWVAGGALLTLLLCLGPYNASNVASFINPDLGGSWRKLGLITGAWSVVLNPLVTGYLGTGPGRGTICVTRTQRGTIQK

| Molecule | Activation of mouse GPR40 in calcium mobilization assay (mouse GPR40) | Calcium response in control CHO cells (control CHO cells [1]) | Glucose elimination in GPR120 null mice (GPR120 null mice [2]; IVGTT) | Acute insulin secretion in GPR120 null mice (GPR120 null mice [2]; vs vehicle of same genotype) | Pharmacokinetic properties (half-life) [3] | cAMP levels in control CHO cells (control CHO cells [4]) | Effect on oral glucose tolerance in GPR120 null mice (GPR120 null mice [5]) | Somatostatin secretion in vitro from mouse islets (mouse islets) |
| --- | --- | --- | --- | --- | --- | --- | --- | --- |
| C#Cc1cc(Oc2cccnc2)cc(N2Cc3ccccc3S2(=O)=O)c1 [AZ13581837, 2-(3-ethynyl-5-(3-pyridyloxy)phenyl)-3H-1,2-benzothiazole 1,1-dioxide] | did not activate | no response | no effect | no effect | short half-life | no increase | – | – |
| 3-(3,5-difluoro-4-((3-methyl-1-phenyl-1H-pyrazol-5-yl)methoxy)phenyl)-2-methylpropanoic acid [Metabolex-36] | did not activate | no response | – | – | short half-life | no increase | no effect | reduce somatostatin secretion |
